Measured values as given in patent EP4722201A1, “3-PHENYLISOXAZOLINE-5-CARBOXAMIDE COMPOUND, AND PREPARATION METHOD THEREFOR, HERBICIDAL COMPOSITION THEREOF AND USE THEREOF” (Jiangsu Flag Chemical Industry Co., Ltd, priority 2023, dated 2024).

How the values were obtained:
Test in all cases: Indoor herbicide activity determination, Seed Treatment; pre-emergence (soil spray)
Format in all cases: in vivo
[1] = system: Leptochloa chinensis
From the text: (§1) The testing method for herbicide activity of the compound of the present invention was as follows:
(§2) Seed Treatment; pre-emergence: quantitative seeds of gramineous weeds (Echinochloa crusgalli, Eleusine indica, Digitaria sanguinalis, Alopecurus japonicus, Beckmannia syzigachne, Leptochloa chinensis, Polypogon fugax, Alopecurus aequalis, Lolium multiflorum, Poa annua, Aegilops tauschii, Avena fatua, Alopecurus myosuroides, Alopecurus japonicus and Alopecurus aequalis), broad-leaved weeds (Eclipta prostrata, Amaranthus retroflexus, Rorippa indica, Malachium aquaticum, Veronica polita, Conyza canadensis, Sesbania cannabina, Sagittariatrifolia and Schoenoplectiella juncoides), and Cyperus iria were sown in plastic pots having a diameter of 7 cm and holes at the bottom and filled with nutrient soil (sandy soil, pH 6.1, organic matter 1%) respectively, the seeds were covered with an appropriate amount of soil after being sown, then the soil was wetted with water from the bottom, the seeds were cultured in a constant-temperature illuminated culture room for 24 h, and the soil was sprayed by using a 3WP-2000 traveling spray tower produced by the Nanjing Institute of Agricultural Mechanization of the Ministry of Agriculture, where a rotational speed of a main shaft was 96 mm/r, a spray height was 300 mm, an effective spraying range of a nozzle was 350 mm, a spray area was 0.35 m^2, and a flow rate at the nozzle was 390 mL/min.
(§3) Post-emergence: an appropriate quantity of seeds of gramineous weeds (Echinochloa crusgalli, Eleusine indica, Digitaria sanguinalis, Alopecurus japonicus, Beckmannia syzigachne, Leptochloa chinensis, Polypogon fugax, Alopecurus aequalis, Lolium multiflorum, Poa annua, Aegilops tauschii, Avena fatua, Alopecurus myosuroides, Alopecurus japonicus and Alopecurus aequalis), broad-leaved weeds (Eclipta prostrata, Amaranthus retroflexus, Rorippa indica, Malachium aquaticum, Veronica polita, Conyza canadensis, Sesbania cannabina, Sagittariatrifolia and Schoenoplectiella juncoides), and Cyperus iria were sown in plastic pots having a diameter of 7 cm and holes at the bottom and filled with nutrient soil (sandy soil, pH 6.1, organic matter 1%) respectively, the seeds were covered with an appropriate amount of soil after being sown, then the soil was wetted with water from the bottom, the seeds were cultured in a constant-temperature illuminated culture room until a 2-4 leaf stage, and stems and leaves underwent spray treatment. After the treatment, the test materials were placed in a laboratory and cultured in the constant-temperature illuminated culture room after the liquid was naturally dry in the shade, and results were determined 21 days later. Inhibition rate of fresh weight % = (1−(fresh weight of treated plants)/(fresh weight of control plants)) × 100% [formula]

[2] = system: Alopecurus myosuroides
From the text: as §1, §2, §3

[3] = system: Lolium multiflorum
From the text: as §1, §2, §3

[4] = system: Eclipta prostrata; conditions: read-out: Herbicidal activities (inhibition rate) Eclipta prostrata; for inhibition at 60 g/ha: 60 g a.i./ha
From the text: as §1, §2, §3

[5] = system: Digitaria sanguinalis; conditions: 60 g a.i./ha, read-out: Herbicidal activities (inhibition rate) Digitaria sanguinalis
From the text: as §1, §2, §3

[6] = system: Alopecurus japonicus
From the text: as §1, §2, §3

[7] = system: Eleusine indica
From the text: as §1, §2, §3

[8] = system: Cyperus iria; conditions: read-out: Herbicidal activities (inhibition rate) Cyperus iria; for inhibition at 60 g/ha: 60 g a.i./ha
From the text: as §1, §2, §3

[9] = system: Aegilops tauschii; conditions: read-out: Herbicidal activities (inhibition rate) Aegilops tauschii
From the text: as §1, §2, §3

Row | Compound | Herbicidal activities, Leptochloa chinensis (inhibition rate class) ([1]; Dosage 120 g a.i./ha) | Herbicidal activities, Alopecurus myosuroides (inhibition rate class) ([2]; Dosage 120 g a.i./ha) | Herbicidal activities, Lolium multiflorum (inhibition rate class) ([3]; Dosage 120 g a.i./ha) | inhibition at 60 g/ha [4] [%] | inhibition at 60 g/ha [5] [%] | Herbicidal activities, Alopecurus japonicus (inhibition rate class) ([6]; Dosage 120 g a.i./ha) | Herbicidal activities, Eleusine indica (inhibition rate class) ([7]; Dosage 120 g a.i./ha) | inhibition at 60 g/ha [8] [%] | Herbicidal activity (inhibition rate class), Leptochloa chinensis ([1]; Dosage 120 g a.i./ha) | Herbicidal activity (inhibition rate class), Alopecurus myosuroides ([2]; Dosage 120 g a.i./ha) | Herbicidal activity (inhibition rate class), Alopecurus japonicus ([6]; Dosage 120 g a.i./ha) | Herbicidal activity (inhibition rate class), Eleusine indica ([7]; Dosage 120 g a.i./ha) | also measured
1 | C=C[C@]1(C(=O)N[C@H]2C=C[C@@H](C(=O)OCCCOC)C2)CC(c2cc(F)cc(C(F)(F)F)c2)=NO1 [I-436] | A (A indicates that the inhibition rate was greater than or equal to 80% to 100%) | A (A indicates that the inhibition rate was greater than or equal to 80% to 100%) | B (B indicates that the inhibition rate was greater than or equal to 60% to less than 80%) | 60 to 80 | 80 to 100 | A (A indicates that the inhibition rate was greater than or equal to 80% to 100%) | A (A indicates that the inhibition rate was greater than or equal to 80% to 100%) | 60 to 80 | – | – | – | – | –
2 | C=C[C@]1(C(=O)N[C@H]2C=C[C@@H](C(=O)OCCC)C2)CC(c2cc(F)cc(C(F)(F)F)c2)=NO1 [I-437] | A (A indicates that the inhibition rate was greater than or equal to 80% to 100%) | A (A indicates that the inhibition rate was greater than or equal to 80% to 100%) | A (A indicates that the inhibition rate was greater than or equal to 80% to 100%) | 60 to 80 | 80 to 100 | A (A indicates that the inhibition rate was greater than or equal to 80% to 100%) | A (A indicates that the inhibition rate was greater than or equal to 80% to 100%) | 80 to 100 | – | – | – | – | –
3 | O=C(OCC1CCCC1)[C@@H]1C=C[C@H](NC(=O)[C@@]2(C(F)(F)F)CC(c3cc(F)cc(C(F)(F)F)c3)=NO2)C1 [I-519] | – | – | – | 80 to 100 | 80 to 100 | – | – | 80 to 100 | A (A indicates that the inhibition rate was greater than or equal to 80% to 100%) | A (A indicates that the inhibition rate was greater than or equal to 80% to 100%) | A (A indicates that the inhibition rate was greater than or equal to 80% to 100%) | A (A indicates that the inhibition rate was greater than or equal to 80% to 100%) | Herbicidal activity (inhibition rate class), Lolium multiflorum ([3]; Dosage 120 g a.i./ha): A (A indicates that the inhibition rate was greater than or equal to 80% to 100%)
4 | C=C[C@]1(C(=O)N[C@H]2C=C[C@@H](C(=O)O[C@H](C)COC)C2)CC(c2cc(F)cc(OC(F)(F)F)c2)=NO1 [I-459] | – | – | – | 60 to 80 | 60 to 80 | – | – | 60 to 80 | A (A indicates that the inhibition rate was greater than or equal to 80% to 100%) | A (A indicates that the inhibition rate was greater than or equal to 80% to 100%) | A (A indicates that the inhibition rate was greater than or equal to 80% to 100%) | A (A indicates that the inhibition rate was greater than or equal to 80% to 100%) | Herbicidal activity (inhibition rate class), Lolium multiflorum ([3]; Dosage 120 g a.i./ha): A (A indicates that the inhibition rate was greater than or equal to 80% to 100%)
5 | C=C[C@]1(C(=O)N[C@H]2C=C[C@@H](C(=O)OCCOC)C2)CC(c2cc(F)cc(C(F)(F)F)c2)=NO1 [I-443] | A (A indicates that the inhibition rate was greater than or equal to 80% to 100%) | – | – | 80 to 100 | 80 to 100 | – | A (A indicates that the inhibition rate was greater than or equal to 80% to 100%) | 80 to 100 | – | – | – | – | –
6 | C=C[C@]1(C(=O)N[C@H]2C=C[C@@H](C(=O)OC)C2)CC(c2cc(F)cc(C(F)(F)F)c2)=NO1 [I-428] | A (A indicates that the inhibition rate was greater than or equal to 80% to 100%) | A (A indicates that the inhibition rate was greater than or equal to 80% to 100%) | A (A indicates that the inhibition rate was greater than or equal to 80% to 100%) | 60 to 80 | 80 to 100 | A (A indicates that the inhibition rate was greater than or equal to 80% to 100%) | A (A indicates that the inhibition rate was greater than or equal to 80% to 100%) | 80 to 100 | – | – | – | – | –
7 | COC(=O)[C@@H]1C=C[C@H](NC(=O)[C@@]2(C(F)(F)F)CC(c3cc(Cl)cc(C(F)(F)F)c3)=NO2)C1 [I-524] | – | – | – | 60 to 80 | 80 to 100 | – | – | 80 to 100 | A (A indicates that the inhibition rate was greater than or equal to 80% to 100%) | B (B indicates that the inhibition rate was greater than or equal to 60% to less than 80%) | A (A indicates that the inhibition rate was greater than or equal to 80% to 100%) | A (A indicates that the inhibition rate was greater than or equal to 80% to 100%) | –
8 | C[C@]1(C(=O)N[C@H]2C=C[C@@H](C(=O)OCCBr)C2)CC(c2cc(F)cc(C(F)(F)F)c2)=NO1 [I-501] | – | – | – | 60 to 80 | 80 to 100 | – | – | 60 to 80 | A (A indicates that the inhibition rate was greater than or equal to 80% to 100%) | – | – | A (A indicates that the inhibition rate was greater than or equal to 80% to 100%) | –
9 | C=CC1(C(=O)N[C@H]2C[C@@H](C(=O)OCCS(C)(=O)=O)C2)CC(c2cc(F)cc(F)c2)=NO1 (stereo partly shown) [I-10] | – | – | – | – | – | – | – | – | – | – | – | – | Herbicidal activities, Leptochloa chinensis (inhibition rate class) ([1]; Dosage 240 g a.i./ha): A (A indicates that the inhibition rate was greater than or equal to 80% to 100%); Herbicidal activities, Alopecurus myosuroides (inhibition rate class) ([2]; Dosage 240 g a.i./ha): A (A indicates that the inhibition rate was greater than or equal to 80% to 100%); Herbicidal activities, Lolium multiflorum (inhibition rate class) ([3]; Dosage 240 g a.i./ha): A (A indicates that the inhibition rate was greater than or equal to 80% to 100%); inhibition at 120 g/ha ([4]; 120 g a.i./ha): 60 to 80%; inhibition at 120 g/ha ([9]; 120 g a.i./ha): 80 to 100%; Herbicidal activities, Alopecurus japonicus (inhibition rate class) ([6]; Dosage 240 g a.i./ha): A (A indicates that the inhibition rate was greater than or equal to 80% to 100%); Herbicidal activities, Eleusine indica (inhibition rate class) ([7]; Dosage 240 g a.i./ha): A (A indicates that the inhibition rate was greater than or equal to 80% to 100%); inhibition at 120 g/ha ([8]; 120 g a.i./ha): 80 to 100%
10 | C=C[C@]1(C(=O)N[C@H]2C[C@@H](C(=O)OCC3CC3)C2)CC(c2cc(F)cc(Cl)c2)=NO1 [I-35] | A (A indicates that the inhibition rate was greater than or equal to 80% to 100%) | A (A indicates that the inhibition rate was greater than or equal to 80% to 100%) | A (A indicates that the inhibition rate was greater than or equal to 80% to 100%) | 60 to 80 | – | A (A indicates that the inhibition rate was greater than or equal to 80% to 100%) | A (A indicates that the inhibition rate was greater than or equal to 80% to 100%) | 60 to 80 | – | – | – | – | inhibition at 60 g/ha ([9]; 60 g a.i./ha): 60 to 80%
